Results on 22 molecules are retold here after PubChem BioAssay (NCI).

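Exposure lasted 48 hours, with cells grown in 96-well plates and compounds tested at five concentrations. TGI: total growth inhibition.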 Bounds are passed on as bounds.

Among the test systems are SF-268 CNS; MCF7 breast; MOLT-4 leukemia; HOP-62 NSCLC; UACC-62 melanoma; SK-MEL-2 melanoma; DU-145 prostate; T-47D breast; M14 melanoma; TK-10 renal.
Holding throughout (assay): DTP human tumour cell line panel, 48 h

One may read the TGI as the concentration at which net growth stops. For `CN(C)CCn1c(=O)c2ccc(NCCN3CCNCC3)c3c(=O)c4ccccc4n(c1=O)c23`, the TGI with SF-268 CNS came out at 18.7 µM; in the assay on MCF7 breast, 12.7 µM; in the assay on MOLT-4 leukemia it was 0.147 µM; in the assay with HOP-62 NSCLC, 22.8 µM; in the assay on UACC-62 melanoma it was 15.8 µM; in the assay with SK-MEL-2 melanoma, 8.72 µM. Further, the TGI with DU-145 prostate came out at 17.7 µM; with T-47D breast, 28.9 µM; in the assay with M14 melanoma it was 29 µM; in the assay on TK-10 renal it was 27.5 µM.
For `CC(=O)Nc1ccc2c3c(cc(O)c2c1)N(C(=O)CCCCCCC(=O)N1CC(CCl)c2c1cc(O)c1cc(NC(C)=O)ccc21)CC3CCl` (centres undefined), the TGI in the assay with SF-268 CNS is 0.464 µM; in the assay on MCF7 breast it was 0.0472 µM; in the assay with UACC-62 melanoma, 0.013 µM; with SK-MEL-2 melanoma it was less than 0.01 µM; in the assay with DU-145 prostate, less than 0.01 µM; with T-47D breast, less than 0.01 µM. In addition, the TGI with M14 melanoma is 0.0177 µM; in the assay on TK-10 renal it was 0.0702 µM.
On to `CC1=C(c2ccccc2)NC(=S)C(C)C(c2ccccc2)=N1` (centres undefined), for which the TGI with SF-268 CNS was greater than 100 µM; in the assay with MCF7 breast it was greater than 100 µM; with MOLT-4 leukemia, 54.1 µM; in the assay on HOP-62 NSCLC, greater than 100 µM; in the assay with UACC-62 melanoma, greater than 100 µM; in the assay on DU-145 prostate it was greater than 100 µM. Besides, the TGI in the assay on T-47D breast and in the assay with TK-10 renal was greater than 100 µM throughout.
As for `NC(=O)Cc1nc2c(N)ncnc2n1C1OC(CO)C(O)C1O` (centres undefined), the TGI in the assay with SF-268 CNS, in the assay on MCF7 breast, in the assay on MOLT-4 leukemia, with HOP-62 NSCLC, in the assay on UACC-62 melanoma and in the assay on SK-MEL-2 melanoma was greater than 100 µM each time. Besides, the TGI with DU-145 prostate, with T-47D breast, with M14 melanoma and in the assay with TK-10 renal was greater than 100 µM in each case.
On to `CCOC(=O)C(Cc1ccc(OC(=O)c2ccc(OC)cc2)cc1)NC(=O)C(F)(F)F` (centres undefined), for which the TGI in the assay on SF-268 CNS, in the assay on MCF7 breast, with MOLT-4 leukemia, with HOP-62 NSCLC, in the assay on UACC-62 melanoma and in the assay with SK-MEL-2 melanoma was greater than 100 µM each time. For the same molecule, the TGI in the assay on DU-145 prostate, with T-47D breast, in the assay with M14 melanoma and with TK-10 renal was greater than 100 µM each time.
Turning to `CCOC(=O)C1c2[nH]c3ccccc3c2CCN1C(=O)c1ccc(OC)o1` (centres undefined), the TGI in the assay with SF-268 CNS, in the assay with MCF7 breast, with MOLT-4 leukemia, in the assay with HOP-62 NSCLC, with SK-MEL-2 melanoma and in the assay on DU-145 prostate was greater than 10 µM each time. Besides, the TGI in the assay with T-47D breast, with M14 melanoma and in the assay on TK-10 renal was greater than 10 µM each time.
On to `CCOc1ccc(N/C(=C(/C(Cl)=C(/Cl)N2CCCCC2)[N+](=O)[O-])n2nnc3ccccc32)cc1`, for which the TGI is 37.4 µM with SF-268 CNS; 39.4 µM in the assay with MCF7 breast; greater than 100 µM with MOLT-4 leukemia; 42.6 µM with HOP-62 NSCLC; 31.6 µM in the assay on UACC-62 melanoma; 33.3 µM in the assay with SK-MEL-2 melanoma. For the same molecule, the TGI was 82.4 µM in the assay on DU-145 prostate, 49.6 µM in the assay with T-47D breast, 38.2 µM in the assay with M14 melanoma and greater than 100 µM in the assay with TK-10 renal.
On to `O=C1C(=O)N(c2cccc(C(F)(F)F)c2)C(=S)N1c1ccccc1`, for which the TGI in the assay on SF-268 CNS is greater than 100 µM; in the assay with MOLT-4 leukemia it was greater than 100 µM; in the assay on HOP-62 NSCLC it was greater than 100 µM; with UACC-62 melanoma, 31.3 µM; in the assay with SK-MEL-2 melanoma, 40.5 µM; with DU-145 prostate, greater than 100 µM. Further, the TGI with T-47D breast was greater than 100 µM; with TK-10 renal it was 8.84 µM.
With `CCCCCCCCCCCCCCCCCCNC(=S)/N=C\C1=C(O)c2ccccc2C1=O`, the TGI was determined as 22.1 µM with SF-268 CNS; 29.5 µM in the assay with MCF7 breast; 16.5 µM in the assay with MOLT-4 leukemia; 22.2 µM with HOP-62 NSCLC; 19.2 µM in the assay with DU-145 prostate; 37.2 µM in the assay on T-47D breast. In addition, the results for the TGI in the assay with M14 melanoma and with TK-10 renal were 22 µM and 30.6 µM, respectively.
Consider `O=[N+]([O-])C(=C(N1CCOCC1)N1CCOCC1)/C(Cl)=C(\Cl)Br`, for which the TGI with SF-268 CNS is 81.3 µM; in the assay on MOLT-4 leukemia, 33.9 µM; with HOP-62 NSCLC, greater than 100 µM; with SK-MEL-2 melanoma it was 44.8 µM; in the assay with DU-145 prostate it was greater than 100 µM; with T-47D breast it was 32.1 µM. The TGI with M14 melanoma is 28.3 µM.
`C=CCN(C(=O)OC(C)(C)C)[C@H](C)C(=O)N[C@@H](C)C(=O)OC`: the TGI in the assay with SF-268 CNS, in the assay with MCF7 breast, with MOLT-4 leukemia, in the assay on HOP-62 NSCLC, in the assay with UACC-62 melanoma and with SK-MEL-2 melanoma was greater than 100 µM each time. The TGI in the assay with DU-145 prostate, with T-47D breast and with M14 melanoma was greater than 100 µM in each case.
Take `S=C1CCSc2c(ccc3ccccc23)N1`: the TGI in the assay with SF-268 CNS, in the assay on MCF7 breast, in the assay with MOLT-4 leukemia, in the assay with HOP-62 NSCLC, with UACC-62 melanoma and in the assay on DU-145 prostate was greater than 100 µM throughout. Further, the TGI in the assay on T-47D breast, with M14 melanoma and in the assay with TK-10 renal was greater than 100 µM throughout.
As for `CC(=O)O[C@H]1CC[C@@]2(C)C(=CC[C@@H]3[C@@H]2CC[C@]2(C)c4c(C)nn(-c5ccccc5)c4C[C@@H]32)C1`, the TGI in the assay on SF-268 CNS was greater than 100 µM; with MCF7 breast it was greater than 100 µM; in the assay on MOLT-4 leukemia, greater than 100 µM; with HOP-62 NSCLC, 35.2 µM; in the assay with UACC-62 melanoma it was 39.3 µM; with DU-145 prostate it was 37.2 µM. The values for the TGI with T-47D breast, in the assay with M14 melanoma and with TK-10 renal were greater than 100 µM, greater than 100 µM and 51 µM, respectively.
With `C/C(CC(O)(/C=N/O)c1ccccc1)=N/O` (centres undefined), the TGI with SF-268 CNS, with MCF7 breast, with MOLT-4 leukemia, in the assay on HOP-62 NSCLC, in the assay with SK-MEL-2 melanoma and with T-47D breast was greater than 100 µM in each case. The TGI in the assay on M14 melanoma and with TK-10 renal was greater than 100 µM in each case.
As to `CC(=O)NC1(c2cc3ccccc3s2)CCCCCC1`, the TGI in the assay with SF-268 CNS is 40.9 µM; with MCF7 breast, greater than 100 µM; in the assay on MOLT-4 leukemia it was 44.4 µM; with HOP-62 NSCLC, greater than 100 µM; in the assay on UACC-62 melanoma it was greater than 100 µM; in the assay on SK-MEL-2 melanoma, 53.2 µM. For the same molecule, the TGI in the assay with DU-145 prostate, in the assay on M14 melanoma and in the assay with TK-10 renal was greater than 100 µM each time.
On to `CCOC(=O)c1cc2/c(=C\c3ccc(N(C)C)cc3)c3ccccc3n2[n+]1C`, for which the TGI in the assay with SF-268 CNS is 19.7 µM; with MCF7 breast it was 27.9 µM; in the assay on MOLT-4 leukemia, greater than 23.4 µM; in the assay on UACC-62 melanoma, 14.2 µM; in the assay with SK-MEL-2 melanoma, 4.74 µM; in the assay on DU-145 prostate it was 17.4 µM. For the same molecule, the TGI in the assay on T-47D breast stood at 24.6 µM; with M14 melanoma, 15.2 µM; in the assay with TK-10 renal, 21.9 µM.
Regarding `CC(=O)Nc1c(C)cc2c(nc3n2CCC3OC(C)=O)c1[N+](=O)[O-]` (centres undefined), the TGI in the assay on SF-268 CNS, with MCF7 breast, in the assay on MOLT-4 leukemia, in the assay with UACC-62 melanoma, in the assay on SK-MEL-2 melanoma and with DU-145 prostate was greater than 100 µM in each case. In addition, the TGI in the assay on T-47D breast and in the assay with M14 melanoma was greater than 100 µM each time.
For the molecule `Cc1ccc(/C(O)=C/C(=O)C(=O)NC23CC4CC(CC(C4)C2)C3)cc1`, the TGI in the assay on SF-268 CNS, in the assay on MCF7 breast, in the assay on MOLT-4 leukemia, in the assay on HOP-62 NSCLC, in the assay with UACC-62 melanoma and in the assay with DU-145 prostate was greater than 10 µM in each case. The TGI in the assay with T-47D breast, with M14 melanoma and with TK-10 renal was greater than 10 µM throughout.
Regarding `COC1CN(C)C(=Nc2cccc3ccccc23)S1` (centres undefined), the TGI in the assay with SF-268 CNS, in the assay with MCF7 breast, with MOLT-4 leukemia, in the assay with HOP-62 NSCLC, in the assay on UACC-62 melanoma and in the assay on DU-145 prostate was greater than 10 µM throughout. The TGI with T-47D breast, in the assay with M14 melanoma and in the assay on TK-10 renal was greater than 10 µM throughout.
Consider `O=C(Nc1ccc2[nH]c(C(=O)N3CC(CCl)c4c3cc([N+](=O)[O-])c3ccccc43)cc2c1)Nc1ccc2[nH]c(C(=O)N3CC(CCl)c4c3cc([N+](=O)[O-])c3ccccc43)cc2c1` (centres undefined), for which the TGI in the assay with SF-268 CNS, with MCF7 breast, with HOP-62 NSCLC, in the assay on UACC-62 melanoma, in the assay on SK-MEL-2 melanoma and in the assay with DU-145 prostate was greater than 100 µM throughout. Also, the TGI in the assay with T-47D breast, in the assay with M14 melanoma and in the assay on TK-10 renal was greater than 100 µM in each case.
As for `O=c1ccn(COC(COCc2ccccc2)COCc2ccccc2)c(=O)[nH]1`, the TGI with MCF7 breast, in the assay with MOLT-4 leukemia, with HOP-62 NSCLC, in the assay with UACC-62 melanoma, in the assay with SK-MEL-2 melanoma and in the assay with DU-145 prostate was greater than 100 µM throughout. In addition, the TGI with T-47D breast, in the assay with M14 melanoma and in the assay with TK-10 renal was greater than 100 µM each time.
`COC1CC(COCc2ccccc2)CC(OC)O1` (centres undefined): the TGI in the assay with SF-268 CNS, in the assay on MCF7 breast, with MOLT-4 leukemia, in the assay on HOP-62 NSCLC, in the assay on UACC-62 melanoma and in the assay with DU-145 prostate was greater than 100 µM in each case. The TGI in the assay on T-47D breast, with M14 melanoma and in the assay on TK-10 renal was greater than 100 µM in each case.
